SMILES	melting point [°C]
O=C(Nc1ccccc1)N1CC(Oc2cccc(C(F)(F)F)c2)C1	137 to 138
CCC(Cc1cc(C(C)(C)C)c(O)c(C(C)(C)C)c1)[N+](=O)[O-] (centres undefined)	55 to 60
O=C(Cc1ccccc1)NC1CN(C(C(=O)OCc2ccccc2)c2ccccc2)C1=O (centres undefined)	96 to 98
COC(=O)c1nnn(C)c1C(=O)OC	63 to 64
CC(C)CC(CS)C(=O)Nc1cccc(C(=O)O)c1 (centres undefined)	> 200
CCOC(=O)CNC(=S)Cc1cnc(C)c2c1COC(C)(C)O2	156 to 158
CC(=O)CCc1cccc(C(N)=O)c1	122 to 125
FC(Cc1ccc(Cl)cc1)(Cn1cncn1)Cn1cncn1	161 to 163
COC(=O)c1cncn1C1c2ccccc2C(Br)(Br)C1(C)C (centres undefined)	138
Cc1ccc(S(=O)(=O)OCC2CCn3c(nc4ccccc43)S2)cc1 (centres undefined)	145 to 147
CC(=O)SC(CC(=S)c1ccc(-c2ccccc2)cc1)C(=O)O (centres undefined)	116 to 118
CCOc1ccc(C(C)=NOCCO)cc1	51 to 54
O=c1ccn(C/C=C/COC(c2ccccc2)(c2ccccc2)c2ccccc2)c(=O)[nH]1	70 to 72
Cc1cn2ccc(N)c(I)c2n1	185
O=C(CCl)N1CC(c2ccc(F)cc2)Sc2ccccc21 (centres undefined)	122 to 124
Cn1ncnc1COc1nc2c(-c3ccccc3F)nncn2c1C1CCC1	120
c1ccc(OCCn2c(CC3CC3)nc3cnc4cc(-c5ccccc5)ccc4c32)cc1	175 to 176
CCCCCCCCCCCCCCOc1ccc(CBr)cc1	40 to 41
CCC([O-])=C(C(=O)OCc1ccc([N+](=O)[O-])cc1)N1C(=O)CC1[N+](CC)(CC)CC (centres undefined)	110 to 112
O=c1c(-c2cccs2)nc2ccccc2n1CC1CCCO1 (centres undefined)	123
CCOC(=O)C(=Cc1ccc(N(C)C)cc1[N+](=O)[O-])C(=O)OCC	101 to 102
CC(C)CC(OC(=O)c1ccncc1)C(=O)OCc1ccccc1 (racemic)	49 to 50
CC1(C)OCC(C)(C)c2cc(OS(C)(=O)=O)ccc2O1	65 to 67
COc1ccc(C(=O)N2CCCC2=O)cc1	120

SMILES	melting point [°C]
O=C(CCCSc1nc[nH]n1)NC/C=C\COc1cc(CN2CCCCC2)ccn1	87 to 89
O=C(c1cccs1)c1cnn2c(-c3cccc(-c4nnn(Cc5ccncc5)n4)c3)ccnc12	170
COc1ccc(C=C2C=CC(=O)O2)cc1	118 to 120
CSC(=S)N1CCN(Cc2ccccc2O)CC1	147
O=[N+]([O-])C=C1NCCN1Cc1ccno1	156 to 158
Cc1nc(Nc2ccc(F)cc2)nc(Cl)c1C	114
COC(=O)c1cc2ccc(N3CCOCC3)cc2c2c1C=CC(c1ccc(OC)cc1)(c1ccc(OC)cc1)O2	154 to 155
O=Cc1ccc(-c2cn(S(=O)(=O)c3ccccc3)c3ccccc23)o1	140
Fc1cccc(F)c1C(C1=NOCCO1)N1CCc2sccc2C1 (centres undefined)	151 to 153
Cc1ccc(C2=NN(c3ccccc3)C(=O)C2)cc1	112 to 113
CCOC(=O)C(=CNc1ccc(Br)cn1)[N+](=O)[O-]	141 to 142
CCc1nc(C)n(COCc2ccccc2)c1Sc1ccccc1	156 to 159
OC1C2CCN(CC2)C1CN1CCCCC1 (centres undefined)	130 to 131
CN1CCNC(=S)N1c1cc(Cl)cc(Cl)c1	240 to 241
Cc1ccc(S(=O)(=O)OCC2Cc3c(F)ccc(Br)c3O2)cc1 (centres undefined)	100 to 103
CCOC(=O)CCCCCCCCOC1OC(CO)C(O)C(O)C1NC(C)=O (centres undefined)	112
CCOC(=O)c1nnc2n1-c1sc(CC)cc1C(c1ccccc1Cl)=NC2	138 to 140
O=C(Cl)c1cccc(Oc2ccc(S(=O)(=O)c3ccc(Oc4cccc(C(=O)Cl)c4)cc3)cc2)c1	113 to 116
CC(O)(c1ccccc1)c1ccncc1 (centres undefined)	141 to 144
Oc1ccc2c(-c3ccccc3F)noc2c1I	212 to 214
CC(=O)N1CCc2c([nH]c3ccccc23)C1	240 to 241
NC(=O)c1cscc1Br	108 to 110
OCc1cc(-c2cnn3c(C(F)(F)F)cc(-c4ccc(Cl)c(Cl)c4)nc23)ccn1	233
O=C(Nc1ccc(N2CCCCC2)cc1)N(C[C@H]1CC[C@H](CN(C(=O)Nc2ccc(N3CCCCC3)cc2)C2CCCCC2)CC1)C1CCCCC1	174 to 178

SMILES	melting point [°C]
Oc1ccc(C2=C(c3ccc(OCCCCCSCCCC(F)(F)C(F)(F)F)cc3)c3ccc(O)cc3CCC2)cc1	157 to 158
CCCCNC(=O)[C@@H](C[C@H](O)[C@H](CC1CCCCC1)NC(=O)[C@H](Cc1cscn1)NC(=O)OC(C)(C)C)C(C)C	201 to 203
Cc1ccc(-c2ccc(C)c(C)n2)cc1	76
NC(=S)NN=C(CCCOC(=O)NCc1ccccc1)c1ccccc1	137 to 140
CCOC(=O)c1ccccc1C(=O)c1cccc(NC(=O)c2ccn3c2CSC3c2cccnc2)c1 (centres undefined)	150
Cc1cc(O)cc(Cl)c1Cl	98 to 100
Nc1ccc(F)c(Br)c1F	77 to 78
COC(=O)C=CC1=CC2=CNC=C3CC(N(C)C)C(=C23)CO1 (centres undefined)	168 to 170
Cc1cc(I)cc(C=O)c1N	134
CCCN1C(=O)CC(=O)N(CCC)C1=O	77 to 80
N#CC(CBr)c1ccccc1 (centres undefined)	63
CCOC(=O)NNC(=O)Nc1c(F)cc(F)cc1F	177 to 178
Cc1cc(C(=O)N(C(C)C)C(C)C)ccc1[N+](=O)[O-]	108 to 110
CN1CCC(n2ccc(-c3ccc(F)cc3)c2-c2ccncc2)CC1	187 to 189
Nc1[nH]c(=O)c(C(=O)NCC2CCN(CC3CCCCC3)CC2)cc1Cl	142 to 146
CC(=O)Nc1ccc(C[C@H](NC(=O)N(CCO)CCc2ccccc2)C(=O)NCCN(C)C)cc1	132 to 137
Oc1ccc2cc(-c3nc4cc(O)ccc4o3)ccc2c1	288 to 290
O=C(O)c1cccc(CN2CCC(c3cn(CC4CC4)c4ccccc34)CC2)c1	207
Cc1nc(N)c2nc(CO)n(CC(C)C)c2c1C	231 to 234
C=CCCCSC1NN=C(c2ccncc2)N1c1ccccc1 (centres undefined)	132 to 133
CCOC(=O)c1[nH]c(C)cc1N	85 to 87
NC(=O)CCc1ccc([N+](=O)[O-])cc1	177 to 178

Now from value to compound:

melting point [°C]	SMILES
258 to 260	O=c1[nH]c2ncc(-c3ccc(-c4n[nH]c(CO)n4)cc3)nc2n1CC1CCOCC1
103 to 104	CCCc1nn(-c2ccc(C(F)(F)F)cn2)cc1CCCOc1nn(C)cc1CCC(=O)O
216 to 218	Cc1ccc2c(c1)CN(C(=O)NCCc1ccc(S(=O)(=O)NC(=O)NC3CCCCC3)cc1)C2=O
162 to 163	Nc1ccc2c(=O)n(-c3ccccc3)c(=O)n(-c3ccccc3)c2n1
245	COC(=O)C1=C(C)Nc2ccnc(OC(C)C)c2C1c1c(Cl)cccc1Cl (centres undefined)
141 to 142	CC(C#Cc1ccc(Oc2ccccc2)cc1)N(O)C(N)=O (centres undefined)
235	CCCC(=O)Nc1n[nH]c2cc(Cl)c(-c3ccccc3)cc12
49.5 to 50.5	Cc1ccc(CN(C(=O)C2CC2)c2nc(C)no2)cc1
220 to 223	COc1cc(Nc2c(C#N)cnc3cc4cc(OCCCCl)c(OC)cc4cc23)c(Cl)cc1Cl
> 300	Cn1cc(C2(c3c4n(c5ccccc35)CCCCC4)CC(=O)NC2=O)c2ccccc21 (centres undefined)
183 to 185	O=C(O)c1[nH]c2ccc(Cl)cc2c1S(=O)c1ccccc1 (centres undefined)
141 to 142	CCOC(=O)Cc1ccc(NC(=O)C(COc2ccccc2Cl)NS(=O)(=O)c2ccc(Cl)cc2)cc1 (racemic)
235 to 238	CCC1(CC(=O)O)OCC(=O)c2c1[nH]c1ccccc21 (centres undefined)
184 to 185	COc1cc2c(Nc3cc(OC)c(OC)c(OC)c3)c(C#N)cnc2cc1/C=C/CCO
280 to 281	CCOC(=O)c1nnc2ccc(NC(C)=O)cc2c1O
140	COc1cc(CSc2ccc(O)cc2)cc(O)c1O
78 to 79	COc1cccc(CCCc2c(CC#N)ccc(OC)c2OC)c1

melting point [°C]	SMILES
248 to 249	NS(=O)(=O)c1cc(C(=O)O)cc(NCc2ccccc2)c1Nc1ccccc1
142 to 146	COc1ccc(-c2cc(=S)n(Cc3cc(OC)c(OC)c(OC)c3)nc2-c2ccc(OC)cc2)cc1
205 to 206	O=C1SCC(O)=C1Cc1ccc2ccccc2c1Br
160 to 163	Cc1cc(C)c(/C=C2\C(=O)N(COC(=O)CCC(=O)O)c3ccccc32)[nH]1
162 to 164	O=C(NO)c1ccc(CNC(=O)c2[nH]c(-c3ccoc3)cc2-c2ccc(F)cc2)cc1
173 to 175	COc1ccc(CNc2nn(CC(=O)O)c(=O)c3ccc(C#N)cc23)cc1Cl
250 to 253	O=C(O)c1cn(Cc2ccccc2)c2nc(N3CCNCC3)ncc2c1=O
198 to 200	O=C1c2ccccc2C(=O)N1c1c(F)cc(Cl)c2c1CCCO2
82 to 84	Cn1c(COc2ccc(CC3SC(=O)N(C(c4ccccc4)(c4ccccc4)c4ccccc4)C3=O)cc2)nc2cc(Cl)cnc21 (centres undefined)
> 260	O=C1c2cc(F)ccc2C(=O)c2c1nc1ccccn21
129 to 130	O=C(NCCc1ccc(O)c(O)c1)OCc1ccccc1
210 to 211	COC(=O)c1c(C#N)ccc(NC(=NC#N)Nc2ccccc2Br)c1O
103 to 110	CC(CCc1ccc(O)cc1)NCC(O)c1cccc(Cl)c1 (centres undefined)
173	CC(=O)c1c(-c2ccc(F)cc2)nc2occn12
191 to 192	CCCCN(CCCC)c1ccc(C=Cc2ccc(C=CC3=C(C#N)C(=C(C#N)C#N)OC3(C)C)s2)c(OC)c1
63 to 65	COCCOC(=O)c1cc(-c2c(C(F)(F)F)nc(OC)[nH]c2=O)c(F)cc1Cl
214 to 216	O=c1ccc(-c2ccccc2Cl)n[nH]1

From a melting point compilation (Tetko et al.; mined from patent text by program, amines drawn as free bases though some values may be those of a salt)
